Patent US8586593B2, “Insecticidal compounds” (Syngenta Crop Protection, Inc., priority 2009, dated 2013)

Experiments:
Type in all cases: in vivo
Spodoptera littoralis = Spodoptera littoralis (Egyptian cotton leafworm) leaf disc spray test; conditions: foliar, 72 h, 200 ppm sprayed on cotton leaf discs, 5 L1 larvae, mortality, feeding behavior and growth regulation 3 days after treatment
Description: Spodoptera littoralis (Egyptian Cotton Leafworm)
Cotton leaf discs were placed on agar in a 24-well microtiter plate and sprayed with test solutions at an application rate of 200 ppm. After drying, the leaf discs were infested with 5 L1 larvae. The samples were checked for mortality, feeding behavior, and growth regulation 3 days after treatment (DAT).

Heliothis virescens = Heliothis virescens (tobacco budworm) egg test on artificial diet; conditions: 96 h, 200 ppm (concentration in well 18 ppm), eggs 0-24 h old on artificial diet, egg mortality, larval mortality and growth regulation after 4 days
Method: Eggs (0-24 h old) were placed in 24-well microtiter plate on artificial diet and treated with test solutions at an application rate of 200 ppm (concentration in well 18 ppm) by pipetting. After an incubation period of 4 days, samples were checked for egg mortality, larval mortality, and growth regulation.

Plutella xylostella = Plutella xylostella (diamond back moth) larval test on artificial diet; conditions: 144 h, 200 ppm (concentration in well 18 ppm), L2 larvae, larval mortality and growth regulation after 6 days
Method: (§1) 24-well microtiter plate (MTP) with artificial diet was treated with test solutions at an application rate of 200 ppm (concentration in well 18 ppm) by pipetting. After drying, the MTP's were infested with L2 larvae (7-12 per well). After an incubation period of 6 days, samples were checked for larval mortality and growth regulation.

Diabrotica balteata = Diabrotica balteata (corn root worm) larval test on artificial diet; conditions: 120 h, 200 ppm (concentration in well 18 ppm), L2 larvae, larval mortality and growth regulation after 5 days
Method: as §1, with “A 24-well” for “24-well”, “with” for “with L2”, “(L2) (6-10” for “(7-12”, “5” for “6”, “mortality,” for “mortality”

Measured: pest or weed control at 200 ppm

O=C(Nc1ccc(C(F)(F)F)cc1C1CCN(Cc2ccc(-c3ncc(F)cn3)cc2)CC1)c1ccnc(Cl)c1 [Compound A2, 2-chloro-N-(2-{1-[4-(5-fluoro-pyrimidin-2-yl)-benzyl]-piperidin-4-yl}-4-trifluoromethyl-phenyl)-isonicotinamide]
≥ 80%: all assays above

O=C(Nc1ccc(F)cc1C1CCN(Cc2ccc(-c3ncc(Cl)cn3)cc2)CC1)c1ccnc(Cl)c1 [Compound A10, 2-chloro-N-(2-{1-[4-(5-chloro-pyrimidin-2-yl)-benzyl]-piperidin-4-yl}-4-fluoro-phenyl)-isonicotinamide]
≥ 80%: all assays above

O=C(Nc1cc(OC(F)(F)F)ccc1C1CCN(Cc2ccc(-c3ncc(Cl)cn3)cc2)CC1)c1ccnc(Cl)c1 [Compound A12, 2-chloro-N-(2-{1-[4-(5-chloro-pyrimidin-2-yl)-benzyl]-piperidin-4-yl}-5-trifluoromethoxy-phenyl)-isonicotinamide]
≥ 80%: all assays above

O=C(Nc1ccc(C(F)(F)F)nc1C1CCN(Cc2ccc(-c3ncc(Cl)cn3)cc2)CC1)c1ccnc(Cl)c1 [Compound B1, 2-chloro-N-{1′-[4-(5-chloro-pyrimidin-2-yl)-benzyl]-6-trifluoromethyl-1′,2′,3′,4′,5′,6′-hexahydro-[2,4′]bipyridinyl-3-yl}-isonicotinamide]
≥ 80%: all assays above

O=C(Nc1ccc(C(F)(F)F)nc1C1CCN(Cc2ccc(-c3ncc(F)cn3)cc2)CC1)c1ccnc(Cl)c1 [Compound B2, 2-chloro-N-{1′-[4-(5-fluoro-pyrimidin-2-yl)-benzyl]-6-trifluoromethyl-1′,2′,3′,4′,5′,6′-hexahydro-[2,4′]bipyridinyl-3-yl}-isonicotinamide]
≥ 80%: all assays above

O=C(Nc1ccc(OC(F)F)nc1C1CCN(Cc2ccc(-c3ncc(Cl)cn3)cc2)CC1)c1ccnc(Cl)c1 [Compound B6, 2-chloro-N-{1′-[4-(5-chloro-pyrimidin-2-yl)-benzyl]-6-difluoromethoxy-1′,2′,3′,4′,5′,6′-hexahydro-[2,4′]bipyridinyl-3-yl}-isonicotinamide]
≥ 80%: all assays above

O=C(Nc1c(F)cc(C(F)(F)F)nc1C1CCN(Cc2ccc(-c3ncc(Cl)cn3)cc2)CC1)c1ccnc(Cl)c1 [Compound B7, 2-chloro-N-{1′-[4-(5-chloro-pyrimidin-2-yl)-benzyl]-4-fluoro-6-trifluoromethyl-1′,2′,3′,4′,5′,6′-hexahydro-[2,4′]bipyridinyl-3-yl}-isonicotinamide]
≥ 80%: all assays above

O=C(Nc1ccc(C(F)(F)F)cc1C1CC[N+]([O-])(Cc2ccc(-c3ncc(Cl)cn3)cc2)CC1)c1ccnc(Cl)c1 (stereo not drawn) [Compound C1, 2-chloro-N-(2-{1-[4-(5-chloro-pyrimidin-2-yl)-benzyl]-1-oxy-piperidin-4-yl}-4-trifluoromethyl-phenyl)-isonicotinamide]
≥ 80%: all assays above

O=C(Nc1ccc(C(F)(F)F)cc1C1CCN(Cc2ccc(-c3ncc(Cl)cn3)cc2)CC1)c1ccnc(Cl)c1 [Compound E1, 2-chloro-N-(2-{1-[4-(5-chloro-pyrimidin-2-yl)-benzyl]-piperidin-4-yl}-4-trifluoromethyl-phenyl)-isonicotinamide acetate]
≥ 80%: Plutella xylostella

O=C(Nc1ccc(C(F)(F)F)cc1C1CCN(Cc2ccc(-c3ncc(Cl)cn3)cc2)CC1)c1ccnc(Cl)c1 [Compound E8]
≥ 80%: Spodoptera littoralis | Heliothis virescens | Diabrotica balteata
